These results are taken from patent US20240197876A1, “METHODS TO DETERMINE TREATMENT EFFICACY WITH GAMMA-DELTA T CELLS” (THE TRUSTEES OF THE UNIVERSITY OF PENNSYLVANIA, priority 2021, published 2024).

Data set [1] has as its system Vδ2 T cells. As to the kind of experiment: Vδ2 T cell expansion from cultured PBMCs (γδTCR activator with or without TLR agonist), FACS. The data set is classed as cell-based, human. The settings on record: for co-stimulatory effect on IPP induced Vδ2 T cell expansion: IPP 5 μg/ml plus TLR agonist, day 5 or 7. On the procedure:
Primary cells and cell lines: PBMCs and monocytes were obtained from Human Immunology Core at the University of Pennsylvania, which were obtained from healthy donors-Using informed consent and approved by Institutional Review Board. For γδ T cell expansion, PBMCs were cultured with RPMI1640 media supplemented with 10% FBS (HyClone, GE Healthcare, UT, USA), 100 U/ml Penicillin-Streptomycin, 2 mM L-Glutamine, 1/1000 2-Mercaptoethanol (2-Me) (Gibco, ThermoFisher Scientific, MA, USA) (or without 2-Me as indicated) and 200 units/ml of Recombinant Human IL-2 (PeproTech, NJ, USA) in 24-well microplates, new media added and supplemented every other day. TCR-γδ T cells were expanded in 24-well tissue culture treated microplates that were coated with mouse-monoclonal Anti-Pan-TCR γδ antibody (1.0 ug/ml in PBS; IMMU510, IM1349, Beckman). For naive γδT cell isolation, PBMCs were purified using a commercial Human TCR γ/δ T Cell Isolation Kit (Miltenyi Biotec, Germany). […] Human melanoma cell lines A375, A2058, WM9, 903 were obtained from Meenhard Herlyn's laboratory (The Wistar Institute, Philadelphia, PA, USA) and they were routinely tested for mycoplasma and DNA fingerprinted (Liu, et al., 2018, Nat Commun 9: 5426). Lung cancer cell line H1975, Colon cancer cell line HT-29, Gastric cancer cell line NCI-N87 were purchased from ATCC. Daudi cells were obtained from Andrei Thomas-Tikhonenko Lab at the University of Pennsylvania and Children's Hospital of Philadelphia, K562 cells were obtained from Michael Milone Lab at the University of Pennsylvania. BRAFi and MEKi combination therapy resistant (CR) cell lines WM9-CR and A2058-CR were generated as described before (Lu, et al., 2017, Nature 550: 133-136).
Flow cytometry: PBMCs and γδ T cell phenotypes were analyzed by flow cytometry. Briefly, single-cell suspensions were surface-stained for 30 min at 4° C. in dark, and […] staining was performed for 60 min after fixation and permeabilization using a True-Nuclear™ Transcription Factor Buffer Set (BioLegend, CA, USA). CFSE Cell Proliferation Kit for flow cytometry was purchased from Invitrogen (ThermoFisher Scientific, MA, USA). Fluorescein-conjugated antibodies were used. Data were acquired on LSRA/B or Fortessa B flow cytometers (BD Biosciences, NJ, USA) at Flow Cytometry and Cell Sorting Resource Laboratory at the University of Pennsylvania and analyzed with FlowJo software (Tree Star, Ashland, OR).

Data set [2] has as its system purified γδ T cells. The data set can be described thus: CFSE proliferation of purified naive γδ T cells. In kind it is cell-based, human. The settings on record: ZOL+PBMCs group, same-donor PBMCs not labeled. How it is done:
Primary cells and cell lines: PBMCs and monocytes were obtained from Human Immunology Core at the University of Pennsylvania, which were obtained from healthy donors-Using informed consent and approved by Institutional Review Board. For γδ T cell expansion, PBMCs were cultured with RPMI1640 media supplemented with 10% FBS (HyClone, GE Healthcare, UT, USA), 100 U/ml Penicillin-Streptomycin, 2 mM L-Glutamine, 1/1000 2-Mercaptoethanol (2-Me) (Gibco, ThermoFisher Scientific, MA, USA) (or without 2-Me as indicated) and 200 units/ml of Recombinant Human IL-2 (PeproTech, NJ, USA) in 24-well microplates, new media added and supplemented every other day. TCR-γδ T cells were expanded in 24-well tissue culture treated microplates that were coated with mouse-monoclonal Anti-Pan-TCR γδ antibody (1.0 ug/ml in PBS; IMMU510, IM1349, Beckman). For naive γδT cell isolation, PBMCs were purified using a commercial Human TCR γ/δ T Cell Isolation Kit (Miltenyi Biotec, Germany). Purified naive γδ T cells routinely exceeded >95% […] by flow cytometry. […]
Flow cytometry: PBMCs and γδ T cell phenotypes were analyzed by flow cytometry. […] Data were acquired on LSRA/B or Fortessa B flow cytometers (BD Biosciences, NJ, USA) at Flow Cytometry and Cell Sorting Resource Laboratory at the University of Pennsylvania and analyzed with FlowJo software (Tree Star, Ashland, OR).

In data set [3] the test system is UACC903 and A2058 melanoma cells. As to the kind of experiment: Cytotoxicity and 3-D tumor spheroid assays with γδ T cells expanded by ZOL or anti-γδTCR antibody. The data set is classed as cell-based, human. How it is done: Cytotoxicity assays. The CytoTox 96® Non-Radioactive Cytotoxicity Assay (Promega, Madison, WI) was applied to measure the cytotoxicity of expanded Vγ9Vδ2 T cells. In this respect, A375 (2×10^4 cells/well), A2058 (2×10^4 cells/well), and 903 (2×10^4 cells/well) melanoma cells were used as target cells and seeded into a 96-round well plate, and expanded Vγ9Vδ2 T cells (1×10^5 cells/well) served as effector cells were directly added to individual wells incubated overnight. The supernatants were collected and the lactate dehydrogenase activity was detected. Controls for spontaneous lactate dehydrogenase release from effector and target cells, the target maximum release, as well as the culture medium background were measured simultaneously (Zhou et al., Cell Mol Immunol. 2012; 9(1):34-44).
3-D Spheroid Assays. The 96-well plate was pre-coated with 50 μL 1.5% Agarose (LONZA, Rockland, ME). Melanoma cells (A2058 and UACC 903 cells) were labeled with CellTracker™ Orange CMRA Dye (Thermo Fisher Scientific, Waltham, MA) and seeded at 2×10^4 cells/well and allowed to form spheroids over 48 hours. […] Infiltrated spheroids were analyzed at 48 h using confocal microscope (Leica, Wetzlar, Germany). Spheroids were divided into single cells and CFSE+ cells infiltrating the spheroids was counted by flow cytometry.

Data set [4] deals with Vδ2 T cells in Hu-Mice. As to the kind of experiment: Vδ2 T cell expansion from PBMCs of humanized mice. In kind it is cell-based. The settings on record: PBMCs from four Hu-Mice, 10 days. An excerpt: Humanized Mice (Hu-Mice): Humanized mice were generated at the Wistar Institute as described (Somasundaram, et al., 2021, Nat Commun 12: 346). Briefly, the humanized mouse model is developed by reconstituting immunodeficient NSG mice with fetal liver-derived CD34+ human hematopoietic stem cells, grafted intravenously, and autologous fetal thymus chunks, grafted under the renal capsule, to promote rapid human T-cell differentiation.
NSG mice engrafted with human hematopoietic stem (CD34+) cells or peripheral blood leukocytes (Hu-Mice) are a useful tool to study immunotherapy (Somasundaram, et al., 2021, Nat Commun 12: 346). However, it was previously unclear whether these mice have functional human γδ T cells. As shown herein, CD3^+VS2^+ T cells are present in the PBMCs of Hu-Mice (FIG. 32A). PBMCs from four Hu-Mice were cultured using human PBMCs culture media and were stimulated with IPP plus resiquimod, or ZOL, for 10 days.

Data set [5] deals with γδ T cells. The data set can be described thus: Expansion of γδ T cells ex vivo from PBMC with ZOL or anti-γδTCR Ab plus IL-2. In kind it is cell-based, human. How it is done:
Expansion of γδ T cells ex vivo. PBMC were plated at 2×10^6 cells per well in 24-well flat-bottomed plates at 37° C. in a humidified atmosphere of 5% CO2. The standard culture medium contains RPMI 1640 (Gibco), containing 10% FBS (Gibco), 2 mM L-glutamine (Gibco), 100 U/ml penicillin (Gibco), streptomycin (Gibco) and 200 IU/ml IL-2 (PeproTech, Rocky Hill, NJ) (Castella et al., Nature communications. 2017; 8:15663.) 5 μM zoledronic acid (Sigma-Aldrich, St. Louis, MO USA) was added into the culture medium at the first day and the medium containing IL-2 changed every two days. In some cases, 24-well plates were pre-coated with 0.5 μg/ml anti-γδTCR Ab (Immunotech, Beckman Coulter, Fullerton, CA) and then PBMCs were added to the anti-γδTCR Ab-coated wells and cultured in the standard culture medium mentioned above. The viability and cell number of γδ T cells were evaluated by the trypan blue staining assay, and the percentage of γδ T cells counted by flow cytometry (Ryan et al., Proc NatlAcadSci USA. 2016; 113(50):14378-83).
Antibodies and flow cytometry analyses. […] Samples were acquired using a LSR-A flow cytometer (BD Biosciences, Baltimore, MD) and analyzed using FlowJo software (Tree Star Inc., Ashland, OR).

The test system of data set [6] is monocytes.
Method: FIG. 30C provides data for purified monocytes cultured with resiquimod for 24 h with indicated concentration, and the viability and mortality were detected with Annexin V/7-AAD apoptosis kit and flow cytometry.
The subject of data set [7] is melanoma cells. As to the kind of experiment: LDH release cytotoxicity of expanded γδ T cells to melanoma cell lines. In kind it is cell-based, human. The settings on record: E:T 5:1. On the procedure: Cytotoxicity: Cytotoxicity of γδ T cells against melanoma cells was measured by lactate dehydrogenase (LDH) release using the CytoTox 96® Non-Radioactive Cytotoxicity Assay kit (G1780, Promega, WI, USA) as described (Zhu, et al., 2016, Molecular Medicine 22: 737-746). Briefly, Melanoma cells were seeded at 4×10^4 cells/well in 50 μl standard growth medium in 96-well plates, while γδ T cells were seeded at effective target ratio E:T=5:1 in the same volume of PBMC culture media at the same time. After the indicated time, plates were spin down briefly and 50 μl supernatants were then harvested for further analysis. Absorbance at 490 nm was read using a BioTek Synergy HT reader (BioTek Instruments, VT, USA) after LDH activity detection, the percentage of cytotoxicity was calculated as (Experimental-Effector Spontaneous-Target Spontaneous)/(Target Maximum-Target Spontaneous)×100.
In general terms: Release of lactate dehydrogenase indicates damage to the cell membrane.

The test system of data set [8] is gastric, colon and lung cancer cells. As to the kind of experiment: LDH release cytotoxicity of expanded γδ T cells to epithelial cancer cell lines. The data set is classed as cell-based, human. Conditions: E:T 5:1; resiquimod 10 μg/ml.

Entries after “also recorded” stand apart in the source; their conditions may differ.

Regarding `OCCS` [2-mercaptoethanol], the “effect of antioxidant in the culture medium on Vδ2 T cell expansion” value in data set [1] (IPP plus resiquimod, 8 days, medium with or without 2-Me) was “did not affect Vδ2 T cell expansion”.
Turning to `NC(=O)[C@H]1CCS[C@@H]2C[C@]3(CCCN3C(=O)Cc3ccc(NC(=O)COc4ccc(Cl)cc4Cl)cc3)C(=O)N12` [ST2825], the “effect of MyD88 inhibition on resiquimod co-stimulation of Vδ2 T cell expansion” value in data set [1] (PBMCs with IPP or IPP plus resiquimod) is “eliminated the co-stimulatory function of resiquimod”.
For the molecule `O=P(O)(O)C(O)(Cn1ccnc1)P(=O)(O)O` [ZOL, zoledronate], the “Vδ2 T cell (CFSE+) proliferation when PBMCs were added to the culture system” value in data set [2] is listed as “regained the capability of inducing Vδ2 T cells (CFSE+) proliferation”. Besides, the “cytotoxicity of tumor spheroid assays” value in data set [3] is listed as “comparable results”. In data set [4], the “expansion of peripheral Vδ2 T cells in Hu-Mice” value is given as “approximately a thousand-fold expansion”. For the same molecule, the “γδ T cell subsets expanded” value in data set [5] (PBMCs expanded by ZOL or anti-TCRγδ Ab) was “preferentially expanded Vδ2 cells”. In addition, the “γδ T cell expansion, ZOL compared with anti-γδTCR antibody” value in data set [5] (PBMCs of healthy donors, 10 day expansion with IL-2) is on record as “significantly better than that of anti-γδT TCR antibody; also recorded: better expansion of γδ T cells than anti-γδTCR antibody”.
For the molecule `CCNCc1nc2c(N)nc3ccccc3c2n1CC(C)(C)O` [gardiquimod], in data set [1] (PBMCs), the “co-stimulatory effect on IPP induced Vδ2 T cell expansion” value is “promoted Vδ2 T cell expansion”.
Still for that read-out and setting: the value for `CC(C)Cn1cnc2c(N)nc3ccccc3c21` [imiquimod] was “promoted Vδ2 T cell expansion”.
As for `CCOCc1nc2c(N)nc3ccccc3c2n1CC(C)(C)O` [resiquimod], the “apoptosis and cell death of monocytes” value in data set [6] was “induced apoptosis and cell death in some monocytes”. Besides, the “cytotoxic effect of γδ T cells expanded using pan-anti-γδTCR antibody to melanoma cell lines” value in data set [7] (A375, 12051u, 903, A2058, WM9, A2058CR, WM9CR, resiquimod 10 μg/ml) was “significantly enhanced the cytotoxic effect”. The “cytotoxic effect of γδ T cells expanded using IPP” value in data set [7] (A375 and A2058, about 13 days expansion with or without resiquimod) is reported as “significantly enhanced the cytotoxic effect”. The “cytotoxic effect of γδ T cells expanded using pan-anti-γδTCR antibody to epithelial cancer cells” value in data set [8] is recorded as “significantly enhanced the cytotoxic effect”. The “efficacy and cytotoxicity compared among three TLR7/8 agonists” value in data set [1] (co-stimulation with IPP, PBMCs, day 7) is given as “best efficacy with the least cytotoxicity”.
Consider `CCC(=O)N1CCN(c2ccc(-n3c(=O)ccc4cnc5ccc(-c6cnc7ccccc7c6)cc5c43)cc2C(F)(F)F)CC1` [torin1], for which the “expansion of Vδ2 T cells induced by IPP in presence of mTOR inhibitor” value in data set [1] (PBMCs with IPP) is “significantly reduced”. Besides, the “inhibition of Vδ2 T cell expansion by IPP plus resiquimod, relative to IPP” value in data set [1] (PBMCs with IPP plus resiquimod and mTOR inhibitor) is “more prominent”.
